What was measured:
[1] = system: hematopoietic stem and progenitor cells (HSPC), CFU-GM; experiment: CFU-GM mobilization into peripheral blood, BALB/c mice
[2] = system: hematopoietic stem and progenitor cells (HSPC), CFU-GM; experiment: CFU-GM mobilization into peripheral blood, FancC −/− mice; type: in vivo
[3] = system: collagen-induced arthritis; details: mice; cited from earlier work
pre-B-ALL cells = details: in vitro, cited from earlier work
[4] = system: hematopoietic stem and progenitor cells (HSPC), CFU-GM; experiment: CFU-GM mobilization into peripheral blood, +/+ C57B1 (wild type) mice; type: in vivo; details: +/+ C57B1 controls; G-CSF alone regimen

## GROβ: recombinant human GROβ, chemokine, CXCR2 agonist
[1]; blood harvested 15 min after GROβ (2.5 mg/kg SC) or GROβ+AMD, alone or on day 5 after G-CSF regimen
  CFU-GM/mL blood mobilized: 2562±396 CFU-GM/mL blood
[2]; FancC −/− vs +/+ C57B1
  CFU-GM mobilization in FancC −/− mice relative to +/+ controls: lower in FancC −/− mice

## c1cc(CN2CCCNCCNCCCNCC2)ccc1CN1CCCNCCNCCCNCC1 [AMD3100, 1,1′-[1,4-phenylene-bis(methylene)]-bis-1,4,8,11-tetraazacyclotetradecane]
[1]; blood harvested 60 min after AMD (5 mg/kg SC), alone or on day 5 after G-CSF regimen
  CFU-GM/mL blood mobilized: 991±121 CFU-GM/mL blood
[3]
  effect in collagen-induced arthritis models: protective effects
pre-B-ALL cells; pre-B-ALL cells
  effect on cytotoxic and antiproliferative effects of vincristine and dexamethasone: enhanced
pre-B-ALL cells
  SDF-1 induced chemotaxis of pre-B-ALL cells into bone marrow stroma layers: blocked

B1: G-CSF: recombinant human Granulocyte-Colony Stimulating Factor (protein, UniProt P09919 31-207, looked up)
Granulocyte …: TPLGPASSLPQSFLLKCLEQVRKIQGDGAALQEKLVSECATYKLCHPEELVLLGHSLGIPWAPLSSCPSQALQLAGCLSQLHSGLFLYQGLLQALEGISPELGPTLDTLQLDVADFATTIWQQMEELGMAPALQPTQGAMPAFASAFQRRAGGVLVASHLQSFLEVSYRVLRHLAQP
[1]; G-CSF alone 100 ug/kg/day, bid, SC×4 days
  CFU-GM/mL blood mobilized: 4362±996 CFU-GM/mL blood
[2]; FancC −/− mice, G-CSF alone regimen
  CFU-GM mobilized: 858±21
[2]; FancC −/− vs +/+ C57B1
  mobilization lower in FancC −/− mice compared to +/+ controls: 45%
[4]
  CFU-GM mobilized: 1451±80

From patent US20100178271A1, “Combination Therapy” (GENZYME CORPORATION, priority 2006, published 2010)
